According to patent publication US20240418701A1, “SINGLE MOLECULE IDEN[…] A REACTIVE HETERO-NANOPORE” (priority 2021, published 2024):
Read-outs that look alike come from different tables or passages of the source.

Experiments:
[1] = target: T1, MspA-PBA (phenylboronic acid modified hetero-octameric (N90C)1(M2)7 MspA) (Mycolicibacterium smegmatis, UniProt A0QR29, D117C/D118N/D120N/D145R/D161R/E166K); format: binding, Mycobacterium smegmatis
T1 construct: H6 (hexa-histidine) (C); 3-(maleimide) phenylboronic acid (MPBA) adduct on the thiol of Cys90; made in house; host or cells: E. coli BL21 (DE3) pLysS, co-expression from pETDuet-1
Experimental: FIG. 46: Definition of event parameters. […] The measurement was carried out as described in Methods in Example 2. The chambers were filled with a 1.5 M KCl buffer (1.5 M KCl, 10 mM MOPS, pH 7.0). A transmembrane potential of +200 mV was continually applied. AMP was added to cis with a final concentration of 300 μM. The open pore current (Ip), the residual current (Ib), the dwell time (τoff) and the inter-event duration (τon) are defined as marked on the trace. The percentage blockage (% Ib) is defined as (Ip−Ib)/Ip. The noise amplitude (S.D.) is defined as the standard deviation of the blockage level.
(§1) NMPs consist of a ribose, a phosphate group and a nucleobase, serving as monomeric units of RNA. […] Experimentally, single channel recording was performed using MspA-PBA in a 1.5 M KCl buffer (1.5 M KCl, 10 mM MOPS, pH 7.0) (Methods in Example 2). A transmembrane potential of +200 mV was continually applied. Four canonical NMPs, adenine mononucleotide (AMP), guanine mononucleotide (GMP), cytosine mononucleotide (CMP) and uracil mononucleotide (UMP) were tested as analytes (FIG. 33d). Either type of NMP was added to cis at a final concentration of 300 μM. Subsequently, successive resistive pulses caused by either type of NMP were immediately observed (FIG. 33d). However, no events were observed when M2 MspA was tested, confirming that the PBA located at the pore constriction is critical in the generation of NMP sensing events (FIG. 44). At this condition, ˜1800 events/h were obtained from each pore. The pore could normally withstand a few hours of continuous measurement. Deoxyribonucleoside monophosphate (dNMP) fails to report any event when sensed by MspA-PBA (FIG. 45). This is expected because dNMPs have no cis-diol structure and can't form the boronate ester which is necessary for sensing. The molecular mechanism of sensing which results from reversible covalent bond formation between an NMP and the PBA at the pore constriction is thus confirmed.
To describe NMP sensing events quantitatively, the event dwell time (τoff), the inter-event interval (τon), the percentage blockage (% Ib=(Ip−Ib)/Ip) and the noise amplitude (S.D.) were derived as described in FIG. 46. Generally, the histograms of τoff and τon show an exponential distribution, and could be fitted to derive the mean time constants τoff or τon, respectively. The histograms of % Ib and S.D. show a Gaussian distribution, which could be fitted to derive the mean percentage blockage % Ib and S.D., respectively. During NMP sensing, by varying the NMP concentrations in cis, the reciprocal of dwell time (1/τoff) remains constant, consistent with a unimolecular dissociation mechanism. Whereas the reciprocal of the inter-event interval (1/τon) linearly correlates with the NMP concentration in cis (Tables 8-11, FIG. 47-50), consistent with a bimolecular model. The dependence of the applied voltage during NMP sensing was investigated using AMP as a representative analyte. […] This is expected because in a pH 7.0 buffer, the phosphate group of NMP is negatively charged and the electrophoretic force applied on the NMP analyte can strongly regulate the rate of event appearance and the event dwell time.

[2] = target: M2 MspA (Mycolicibacterium smegmatis, UniProt A0QR29, D117N/D118N/D120N/D145R/D161R/E166K); test: NMP sensing performed with M2 MspA (control without PBA); format: binding, Mycobacterium smegmatis; settings: NMP 1 mM in cis, +200 mV
Chain of M2 MspA (A0QR29 28-211 D117N/D118N/D120N/D145R/D161R/E166K): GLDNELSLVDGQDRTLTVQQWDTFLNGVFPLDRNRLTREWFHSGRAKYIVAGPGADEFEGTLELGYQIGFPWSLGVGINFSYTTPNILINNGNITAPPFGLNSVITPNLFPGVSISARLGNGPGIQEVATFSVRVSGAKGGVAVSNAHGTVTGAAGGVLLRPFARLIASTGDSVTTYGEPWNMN
Experimental: FIG. 44: NMP sensing performed with M2 MspA. (a-d) Representative traces of (a) CMP, (b) UMP, (c) AMP, (d) GMP sensing performed with M2 MspA. All measurements were carried out as described in Methods in Example 2 in a 1.5 M KCl buffer (1.5 M KCl, 10 mM MOPS, pH 7.0). A +200 mV bias was continually applied. NMPs were added to cis with a final concentration of 1 mM for each analyte.
as §1

[3] = target: T2, Octameric M2 MspA (Mycolicibacterium smegmatis, UniProt A0QR29, D117N/D118N/D120N/D145R/D161R/E166K); test: Alditol sensing using M2 MspA nanopore (control without PBA); format: binding, Mycobacterium smegmatis; settings: alditol 4 mM in cis, +100 mV
T2 construct: made in house; host or cells: E. coli BL21 (DE3)
T2 sequence (A0QR29 28-211 D117N/D118N/D120N/D145R/D161R/E166K): as above
Experimental: FIG. 87: Alditol sensing using M2 MspA nanopore. Glycerol, erythritol, xylitol and sorbitol were used as the representative alditols with different number of hydroxyl groups. All measurements were carried out as described in Methods 1 in Example 3. Octameric M2 MspA was applied as the nanopore sensor. A transmembrane potential of +100 m V was continually applied. Each alditol was added to cis with a final concentration of 4 mM.
The octameric M2 MspA was used as a control in FIG. 87. It was expressed with E. coli BL21 (DE3) and purified by nickel affinity chromatography as reported previously.^1

[4] = target: T3, MspA-PBA (boronic acid appended hetero-octameric MspA) (Mycolicibacterium smegmatis, UniProt A0QR29, D117C/D118N/D120N/D145R/D161R/E166K); test: Single channel recording of alditol binding to MspA-PBA nanopore (standards and zero-sugar drinks); set-up: species or system Mycobacterium smegmatis; settings: N=3; for ratio (mean current percentage blockage) / std (standard deviation of the blocking level): alditol 4 mM (glycerol 8 mM) in cis
T3 construct: H6 (hexa-histidine) (C); 3-(maleimide) phenylboronic acid (MPBA) adduct on the thiol of Cys90; made in house; host or cells: E. coli BL21 (DE3) pLysS, co-expression from pETDuet-1
T3 sequence (A0QR29 other isoform, or with tags, fused parts or gaps D117N/D118N/D120N/D145R/D161R/E166K): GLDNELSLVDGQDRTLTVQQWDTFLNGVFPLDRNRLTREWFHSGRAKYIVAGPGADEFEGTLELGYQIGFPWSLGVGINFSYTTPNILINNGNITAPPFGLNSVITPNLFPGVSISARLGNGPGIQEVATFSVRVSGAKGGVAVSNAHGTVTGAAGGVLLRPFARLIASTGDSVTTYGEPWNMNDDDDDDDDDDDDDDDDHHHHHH
T3 sequence (A0QR29 other isoform, or with tags, fused parts or gaps D117C/D118N/D120N/D145R/D161R/E166K): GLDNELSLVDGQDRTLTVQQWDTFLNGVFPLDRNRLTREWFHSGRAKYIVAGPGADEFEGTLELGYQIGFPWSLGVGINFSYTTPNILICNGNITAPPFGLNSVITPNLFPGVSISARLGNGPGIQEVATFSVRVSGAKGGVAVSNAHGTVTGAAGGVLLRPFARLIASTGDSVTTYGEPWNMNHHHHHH
Experimental: FIG. 88: Definition of event parameters. (a) A representative electrophysiology trace containing nanopore events. Xylitol was treated as the model analyte. I0 is the open pore current and Ib is the residual current caused by alditol blockade. ratio is derived from (I0−Ib)/I0, which is defined as the percentage blockage. τoff represents the dwell time of an event. τon represents the inter-event interval. std is the standard deviation value of the blockage level. (b-c) The histogram plot of ratio (b) and std (c) acquired from a continually recorded trace. The histograms were Gaussian fitted and the peaks of the fitting results respectively represent the mean value of ratio and the mean std. (d-e) The histogram plots of τoff (d) and τon (e) acquired from a continually recorded trace. The histogram plots were respectively fit to a single exponential curve, according to the equation y=a*exp (−x/τ), from which the mean event dwell time (τoff) (d) and the mean inter-event interval (τon) (e) were respectively derived. If not otherwise stated, all results in this manuscript were described by event parameters defined above.
All subsequent nanopore measurements were carried out with a 1.5 M KCl buffer (1.5 M KCl, 10 mM 3-(N-Morpholino) propanesulfonic acid (MOPS), pH 7.0) and a +100 m V continually applied potential (Method 1 in Example 3). 13 types of alditols, which were derived from the reduction of the carbonyl group of C3-C6 monoaldoses were treated as model polyols (FIGS. 77b and 83). The PBA of MspA-PBA can complex with a polyol, forming a cyclic ester at the pore constriction and resulting in the corresponding nanopore event being reported. All alditols were added to the cis side of the pore and the final concentration of alditols was set at 4 mM with the exception of glycerol, which was set at 8 mM instead. […] In addition, single molecule sensing of glycerol and D-Sorbitol by MspA-PBA are as shown in FIGS. 104 and 105, respectively.
To describe the sensing events quantitatively, event parameters such as the open-pore current (I0), the current blockade (Ib), the percentage blockage (ratio), the event dwell time (τoff), the inter-event intervals (τon) and the standard deviation value of the blockage level (std) were defined as described in FIG. 88. The percentage blockage, also referred to for simplicity as ratio, is defined as (I0−Ib)/I0.
Quantitatively, the reciprocal of the mean inter-event interval (1/τon, N=3) is linearly correlated with the alditol concentration, consistent with a bimolecular model. The mean event dwell time τoff (N=3) however is independent of the alditol concentration, and this is consistent with a unimolecular dissociation mechanism (FIGS. 89e-92e, Table 18). […] The binding constant for borate cyclic ester formation for alditols increases as the number of hydroxyl groups in the alditol increases (FIG. 77c and Table 18), consistent with conclusions drawn previously from the corresponding NMR measurements.^52 Nanopore measurements were also performed with different applied voltages. […] This is expected because all alditols tested in this paper are electrically neutral and the formation of a borate ester is independent of the local electric field.
All nanopore measurements were performed as described previously.^1,2 Briefly, the measurement device has two custom chambers separated by a thick Teflon film containing a drilled (˜100 μm) aperture. Before the measurement, the aperture was first treated with 0.5% (v/v) hexadecane in pentane and set for pentane evaporation. Electrolyte buffer (500 μL) was added to the electrically grounded chamber (cis chamber) and the opposing chamber (trans chamber). All nanopore measurements in this paper were performed with a 1.5 M KCl buffer (1.5 M KCl, 10 mM MOPS, pH 7.0). Two custom-made Ag/AgCl electrodes were placed in both chambers in contact with the buffers and the patch-clamp amplifier to form a closed circuit. […]

[5] = NMP 100 μM in cis, +200 mV, three independent measurements
[6] = NMP 200 μM in cis, +200 mV, three independent measurements
[7] = NMP 300 μM in cis, +200 mV, N=3
[8] = NMP 300 μM in cis, +200 mV, three independent measurements
[9] = NMP 400 μM in cis, +200 mV, three independent measurements
[10] = NMP 500 μM in cis, +200 mV, three independent measurements
[11] = voltage series: +40 mV, AMP 500 μM in cis
[12] = voltage series: +80 mV, AMP 500 μM in cis
[13] = voltage series: +120 mV, AMP 500 μM in cis
[14] = voltage series: +160 mV, AMP 500 μM in cis
[15] = voltage series: +200 mV, AMP 500 μM in cis
[16] = voltage series: +60 mV, glycerol 12 mM, other alditols 8 mM
[17] = voltage series: +80 mV, glycerol 12 mM, other alditols 8 mM
[18] = voltage series: +100 mV, glycerol 12 mM, other alditols 8 mM
[19] = voltage series: +120 mV, glycerol 12 mM, other alditols 8 mM

## Nc1ncnc2c1ncn2[C@@H]1O[C@H](COP(=O)(O)O)[C@@H](O)[C@H]1O [AMP, adenosine-5′-monophosphate]
[1]; [5]
  1/τoff: 14.9 ± 0.5 s⁻¹
  1/τon: 0.54 ± 0.11 s⁻¹
[1]; [6]
  1/τoff: 15.1 ± 0.2 s⁻¹
  1/τon: 0.82 ± 0.05 s⁻¹
[1]; [7]
  % Ib (percentage blockage): 10.89±0.14%
  S.D. (noise amplitude of blockage level): 3.14 ± 0.14 pA
  τoff (mean dwell time): 72.76 ± 2.07 ms
  τon (mean inter-event interval): 979.5 ± 106.1 ms
[1]; NMP 300 μM in cis, +200 mV, N=3, listed as A
  % Ib (percentage blockage): 10.89 ± 0.14%
[1]; [8]
  1/τoff: 13.8 ± 0.4 s⁻¹
  1/τon: 1.03 ± 0.11 s⁻¹
[1]; [9]
  1/τoff: 14.6 ± 1.1 s⁻¹
  1/τon: 1.19 ± 0.08 s⁻¹
[1]; [10]
  1/τoff: 14.4 ± 1.8 s⁻¹
  1/τon: 1.39 ± 0.07 s⁻¹
[1]; analyte 1 mM in cis, +200 mV
  sensing events with MspA-PBA: Successive appearance of AMP sensing events was observed
[1]; sole NMP 300 μM in cis, +200 mV, three independent measurements
  Calibration coefficient δ (NMP binding events per unit concentration per min): 0.21 ± 0.02 µM⁻¹ min⁻¹
[1]; [11]
  1/τoff: 30.5 ± 1.7 s⁻¹
  1/τon: 0.45 ± 0.03 s⁻¹
[1]; [12]
  1/τoff: 27.6 ± 1.9 s⁻¹
  1/τon: 0.71 ± 0.12 s⁻¹
[1]; [13]
  1/τoff: 24.2 ± 2.1 s⁻¹
  1/τon: 1.13 ± 0.08 s⁻¹
[1]; [14]
  1/τoff: 18.0 ± 1.4 s⁻¹
  1/τon: 1.23 ± 0.11 s⁻¹
[1]; [15]
  1/τoff: 14.5 ± 1.8 s⁻¹
  1/τon: 1.38 ± 0.08 s⁻¹
[2]
  binding events with M2 MspA: No binding events were observed

## OCC(O)CO [glycerol]
[3]
  binding events with M2 MspA: No binding events were observed
[4]; +100 mV
  ratio (mean current percentage blockage): 17.07 ± 0.15%
  std (standard deviation of the blocking level): 2.57 ± 0.07 pA
[4]; alditol 6 mM in cis, +100 mV
  1/τon: 1.3 ± 0.2 s⁻¹
  τoff: 10.5 ± 0.8 ms
[4]; alditol 8 mM in cis, +100 mV
  1/τon: 1.7 ± 0.2 s⁻¹
  τoff: 10.3 ± 0.4 ms
[4]; alditol 10 mM in cis, +100 mV
  1/τon: 2.1 ± 0.3 s⁻¹
  τoff: 10.5 ± 0.7 ms
[4]; alditol 12 mM in cis, +100 mV
  1/τon: 2.5 ± 0.3 s⁻¹
  τoff: 10.4 ± 0.5 ms
[4]; [16]
  1/τon: 2.2 ± 0.2 s⁻¹
[4]; [17]
  1/τon: 2.35 ± 0.14 s⁻¹
[4]; [18]
  1/τon: 2.4 ± 0.3 s⁻¹
[4]; [19]
  1/τon: 2.4 ± 0.2 s⁻¹

## OC[C@@H](O)[C@H](O)[C@@H](O)CO [xylitol]
[3]
  binding events with M2 MspA: No binding events were observed
[4]; +100 mV
  ratio (mean current percentage blockage): 25.70±0.10%
  std (standard deviation of the blocking level): 6.28±0.07 pA
[4]; alditol 2 mM in cis, +100 mV
  1/τon: 0.42 ± 0.02 s⁻¹
  τoff: 515.3 ± 43.5 ms
[4]; alditol 4 mM in cis, +100 mV
  1/τon: 0.84 ± 0.04 s⁻¹
  τoff: 496.3 ± 18.6 ms
[4]; alditol 6 mM in cis, +100 mV
  1/τon: 1.3 ± 0.1 s⁻¹
  τoff: 461.1 ± 13.4 ms
[4]; alditol 8 mM in cis, +100 mV
  1/τon: 1.71 ± 0.03 s⁻¹
  τoff: 474.6 ± 21.2 ms
[4]; [16]
  1/τon: 1.66 ± 0.02 s⁻¹
[4]; [17]
  1/τon: 1.69 ± 0.02 s⁻¹
[4]; [18]
  1/τon: 1.70 ± 0.03 s⁻¹
[4]; [19]
  1/τon: 1.68 ± 0.04 s⁻¹
